Source: publication PMC9147192, “Small Molecule Arranged Thermal Proximity Coaggregation (smarTPCA)—A Novel Approach to Characterize Protein–Protein Interactions in Living Cells by Similar Isothermal Dose–Responses” (International Journal of Molecular Sciences, 2022)
Values joined by “and” are separate entries in the source; they are usually repeats but may differ in a detail not shown here. Identical values can stand only once. Like-named read-outs stand apart in the source and are kept apart here.

Assays:
[1] = target: T1, MAPKAPK3 (Homo sapiens, UniProt Q16644); test: CETSA in living HL-60 cells, immunoblot; type: cell-based
T1 sequence (Q16644 whole entry): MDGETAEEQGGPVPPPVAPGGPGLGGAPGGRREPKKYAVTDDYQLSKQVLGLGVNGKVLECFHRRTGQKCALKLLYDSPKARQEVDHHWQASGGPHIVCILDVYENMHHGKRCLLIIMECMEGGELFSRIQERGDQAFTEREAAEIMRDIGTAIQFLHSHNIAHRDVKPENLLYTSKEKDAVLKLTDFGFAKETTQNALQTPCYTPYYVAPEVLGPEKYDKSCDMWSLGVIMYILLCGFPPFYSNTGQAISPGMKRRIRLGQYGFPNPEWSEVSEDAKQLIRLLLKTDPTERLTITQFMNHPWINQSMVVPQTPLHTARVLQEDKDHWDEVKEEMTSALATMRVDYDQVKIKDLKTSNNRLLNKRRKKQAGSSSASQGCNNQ
Experimental: (§1) First, we conducted CETSA experiments according to Jafari et al.. […] Subsequent SDS-PAGE and immunoblotting were performed according to optimized conditions allowing for parallel detection of MAPK14, MAPKAPK2, MAPKAPK3, and GSK-3α (Supplementary Figure S1).
(§2) HL-60 cells (ATCC No. CCL-240) were expanded to about […] in 80 mL cell culture medium (RPMI-1640 supplemented with 10% (v/v) FBS, 1% (v/v) penicillin-streptomycin and 1% (v/v) L-glutamine solution) and divided into four aliquots (20 mL each, 25 million cells per flask). […] The same volume of DMSO was added to the remaining aliquot serving as the vehicle (DMSO) control. After incubation (1 h, 37 °C, 5% CO2, in cell culture CO2 incubator), the cell suspensions were transferred into 50 mL conical tubes, cell number and viability were determined, and after centrifugation (300 relative centrifugal force (rcf), 3 min, room temperature (r.t.)), the supernatants were completely removed and discarded. The cells were washed using 20 mL Dulbecco’s phosphate-buffered saline (PBS), respectively, by resuspension and centrifugation (300 rcf, 3 min, r.t.). After the complete removal of the supernatants, the cells were transferred into pre-weighed 2 mL Eppendorf tubes using 0.5 mL PBS (r.t.), respectively, for resuspending. After centrifugation (300 rcf, 3 min, r.t.) and removing as much as possible of the supernatants, the cell wet weights were determined.
(§3) The suspensions were shortly centrifuged (1 s or less) using a benchtop centrifuge that was equipped with an inset for PCR tubes to release trapped air and to achieve an even liquid level without pelleting the cells. The 100 µL cell suspensions were then temperature treated by a 7 min pre-incubation at r.t., a 3 min incubation at the following different temperatures in the PCR cycler (DNA Engine Tetrad 2, lid temperature 70 °C, gradient block 1: 36–55 °C, gradient block 2: 48–67 °C), and a 3 min post-incubation at r.t. in a metal heating block for uniform heat dissipation.
(§4) The cells were lysed by four freeze/thaw cycles consisting of thawing the samples (in a heat block set to 25 °C and shaking at 1250 rpm) accompanied by mixing them several times by inversion and then shock freezing them again in liquid nitrogen. The resulting lysates were kept cold (on ice or 4 °C) from then on. After centrifugation (20,000 rcf, 30 min, 4 °C) to pellet the cell debris together with precipitated and aggregated proteins, the supernatants were recovered and, after determining the total protein concentration (Pierce 660 nm Protein Assay, BSA as standard), the resulting cell extracts containing the fraction of soluble, non-denatured proteins were shock frozen in liquid nitrogen and stored at −80 °C.
(§5) For each sample set comprising either ten temperature range samples or ten compound concentration range samples, the same volume of the cell extracts containing the fraction of soluble, non-denatured proteins was used for further analysis. This volume was determined using the two lowest temperature samples (36.5 and 41.2 °C) per temperature range sample set so that they contained an average of 5 µg total protein (e.g., 2.78 µL for all temperature range samples of a sample set whose two lowest temperature samples contain an average of 1.8 mg/mL protein). For the compound concentration range experiments, all samples of a set were used for averaging.

[2] = target: T2, MAPKAPK2 (Homo sapiens, UniProt P49137); test: CETSA in living HL-60 cells, immunoblot; type: cell-based; settings: for Top: top plateau of melting curve fit
T2 sequence (P49137 whole entry): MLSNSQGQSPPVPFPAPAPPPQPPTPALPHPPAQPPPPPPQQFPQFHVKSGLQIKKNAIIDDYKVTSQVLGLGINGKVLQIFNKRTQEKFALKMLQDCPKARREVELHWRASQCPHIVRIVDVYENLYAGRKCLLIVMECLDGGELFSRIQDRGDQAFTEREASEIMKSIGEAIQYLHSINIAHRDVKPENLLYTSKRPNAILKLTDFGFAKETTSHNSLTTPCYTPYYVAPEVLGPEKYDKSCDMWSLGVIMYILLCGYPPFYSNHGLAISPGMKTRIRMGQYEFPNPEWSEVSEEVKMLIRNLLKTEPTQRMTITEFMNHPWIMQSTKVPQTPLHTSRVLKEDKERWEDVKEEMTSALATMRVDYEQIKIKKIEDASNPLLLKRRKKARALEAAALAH
Experimental: as §1, §2, §3, §4, §5

[3] = target: T3, GSK-3α (Homo sapiens, UniProt P49840); test: CETSA in living HL-60 cells, immunoblot; type: cell-based
T3 construct: parallel detection of MAPK14, MAPKAPK2, MAPKAPK3, and GSK-3α; endogenous in cells; host or cells: HL-60 (ATCC CCL-240), living cells or cell extract
T3 sequence (P49840 whole entry): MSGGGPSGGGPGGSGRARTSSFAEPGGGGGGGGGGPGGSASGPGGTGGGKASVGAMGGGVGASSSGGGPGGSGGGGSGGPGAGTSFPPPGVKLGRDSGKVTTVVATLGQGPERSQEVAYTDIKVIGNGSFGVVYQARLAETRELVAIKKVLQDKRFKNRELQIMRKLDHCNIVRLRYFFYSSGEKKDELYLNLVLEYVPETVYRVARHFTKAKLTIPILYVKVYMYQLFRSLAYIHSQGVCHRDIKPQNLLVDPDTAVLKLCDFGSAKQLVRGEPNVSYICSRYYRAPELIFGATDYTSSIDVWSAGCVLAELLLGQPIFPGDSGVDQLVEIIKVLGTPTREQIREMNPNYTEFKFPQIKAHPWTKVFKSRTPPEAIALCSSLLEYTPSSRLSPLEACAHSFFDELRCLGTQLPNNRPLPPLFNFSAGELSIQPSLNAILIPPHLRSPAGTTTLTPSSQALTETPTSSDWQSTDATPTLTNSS
Experimental: as §1, §2, §3, §4, §5

[4] = tested on: MAPKAPK2 phosphorylation; test: MAPKAPK2 phosphorylation-dependent electrophoretic mobility shift (PDEMS) immunoblot, living HL-60 cells; settings: 20 µM inhibitor
[5] = target: T4, HN1L (Homo sapiens, UniProt Q9H910); test: TPP-CCR in living HL-60 cells; settings: for Hill slope (HN1L): living HL-60 cells, […] °C, TMT-MS
T4 sequence (Q9H910 1-190): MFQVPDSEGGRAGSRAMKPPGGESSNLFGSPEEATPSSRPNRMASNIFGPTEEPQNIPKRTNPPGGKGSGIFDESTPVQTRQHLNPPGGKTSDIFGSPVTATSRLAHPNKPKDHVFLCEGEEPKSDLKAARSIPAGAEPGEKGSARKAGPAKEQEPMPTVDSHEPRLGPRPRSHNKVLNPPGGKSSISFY

[6] = target: MAPK8 (Homo sapiens, UniProt P45983); test: TPP-CCR in living HL-60 cells; settings: […] °C, TMT-MS
Sequence of MAPK8 (P45983 whole entry): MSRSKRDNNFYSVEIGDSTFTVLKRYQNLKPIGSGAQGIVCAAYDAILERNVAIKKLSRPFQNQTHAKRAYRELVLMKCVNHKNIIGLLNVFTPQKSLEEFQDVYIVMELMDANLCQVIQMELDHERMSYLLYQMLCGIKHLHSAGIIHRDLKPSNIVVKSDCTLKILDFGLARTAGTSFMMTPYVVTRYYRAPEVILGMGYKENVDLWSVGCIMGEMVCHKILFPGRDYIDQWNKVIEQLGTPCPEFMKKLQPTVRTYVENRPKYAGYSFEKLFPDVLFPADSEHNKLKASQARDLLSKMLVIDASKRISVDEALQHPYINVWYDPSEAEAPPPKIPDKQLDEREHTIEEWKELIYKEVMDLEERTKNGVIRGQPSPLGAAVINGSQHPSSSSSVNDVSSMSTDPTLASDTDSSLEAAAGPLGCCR

[7] = target: T1, MAPKAPK3; test: TPP-TR in living HL-60 cells; type: cell-based; settings: 20 μM, single set (no replicates)
Experimental: as §2, §3, §4
(§6) For each sample set comprising ten temperature range samples, the same volume of the cell extracts containing the fraction of soluble, non-denatured proteins was used for further analysis. Volume calculation for 30 µg total protein was performed as described for SDS-PAGE and immunoblotting. The calculated volume was respectively transferred into 0.5 mL LoBind Eppendorf tubes and evaporated to dryness using vacuum centrifugation (SpeedVac concentrator, Eppendorf, Hamburg, Germany). The dried proteins were each reconstituted in 10 µL of SDS sample buffer (containing DTT) and incubated for 30 min at 50 °C with shaking (700 rpm). 1.111 µL 1 M iodoacetamide (IAA) was added to each sample (final 100 mM IAA), then the samples were mixed and incubated for 30 min at r.t. in the dark. Sample quality was controlled by SDS-PAGE/silver staining using 0.926 µL of each sample (2.5 µg on average for the two lowest temperature samples; 26-well 4–12% Bis-Tris polyacrylamide gels, Novex NuPAGE, Thermo Scientific; 15 min at 50 V, about 1.5 h at 200 V using the recommended MOPS running buffer).

[8] = target: T2, MAPKAPK2; test: TPP-TR in living HL-60 cells; type: cell-based; settings: 20 μM, single set (no replicates)
Experimental: as §2, §3, §4, §6

[9] = target: MYLK (Homo sapiens, UniProt Q15746); test: TPP-TR in living HL-60 cells; type: cell-based; settings: 20 μM, single set (no replicates)
Sequence of MYLK (Q15746 whole entry): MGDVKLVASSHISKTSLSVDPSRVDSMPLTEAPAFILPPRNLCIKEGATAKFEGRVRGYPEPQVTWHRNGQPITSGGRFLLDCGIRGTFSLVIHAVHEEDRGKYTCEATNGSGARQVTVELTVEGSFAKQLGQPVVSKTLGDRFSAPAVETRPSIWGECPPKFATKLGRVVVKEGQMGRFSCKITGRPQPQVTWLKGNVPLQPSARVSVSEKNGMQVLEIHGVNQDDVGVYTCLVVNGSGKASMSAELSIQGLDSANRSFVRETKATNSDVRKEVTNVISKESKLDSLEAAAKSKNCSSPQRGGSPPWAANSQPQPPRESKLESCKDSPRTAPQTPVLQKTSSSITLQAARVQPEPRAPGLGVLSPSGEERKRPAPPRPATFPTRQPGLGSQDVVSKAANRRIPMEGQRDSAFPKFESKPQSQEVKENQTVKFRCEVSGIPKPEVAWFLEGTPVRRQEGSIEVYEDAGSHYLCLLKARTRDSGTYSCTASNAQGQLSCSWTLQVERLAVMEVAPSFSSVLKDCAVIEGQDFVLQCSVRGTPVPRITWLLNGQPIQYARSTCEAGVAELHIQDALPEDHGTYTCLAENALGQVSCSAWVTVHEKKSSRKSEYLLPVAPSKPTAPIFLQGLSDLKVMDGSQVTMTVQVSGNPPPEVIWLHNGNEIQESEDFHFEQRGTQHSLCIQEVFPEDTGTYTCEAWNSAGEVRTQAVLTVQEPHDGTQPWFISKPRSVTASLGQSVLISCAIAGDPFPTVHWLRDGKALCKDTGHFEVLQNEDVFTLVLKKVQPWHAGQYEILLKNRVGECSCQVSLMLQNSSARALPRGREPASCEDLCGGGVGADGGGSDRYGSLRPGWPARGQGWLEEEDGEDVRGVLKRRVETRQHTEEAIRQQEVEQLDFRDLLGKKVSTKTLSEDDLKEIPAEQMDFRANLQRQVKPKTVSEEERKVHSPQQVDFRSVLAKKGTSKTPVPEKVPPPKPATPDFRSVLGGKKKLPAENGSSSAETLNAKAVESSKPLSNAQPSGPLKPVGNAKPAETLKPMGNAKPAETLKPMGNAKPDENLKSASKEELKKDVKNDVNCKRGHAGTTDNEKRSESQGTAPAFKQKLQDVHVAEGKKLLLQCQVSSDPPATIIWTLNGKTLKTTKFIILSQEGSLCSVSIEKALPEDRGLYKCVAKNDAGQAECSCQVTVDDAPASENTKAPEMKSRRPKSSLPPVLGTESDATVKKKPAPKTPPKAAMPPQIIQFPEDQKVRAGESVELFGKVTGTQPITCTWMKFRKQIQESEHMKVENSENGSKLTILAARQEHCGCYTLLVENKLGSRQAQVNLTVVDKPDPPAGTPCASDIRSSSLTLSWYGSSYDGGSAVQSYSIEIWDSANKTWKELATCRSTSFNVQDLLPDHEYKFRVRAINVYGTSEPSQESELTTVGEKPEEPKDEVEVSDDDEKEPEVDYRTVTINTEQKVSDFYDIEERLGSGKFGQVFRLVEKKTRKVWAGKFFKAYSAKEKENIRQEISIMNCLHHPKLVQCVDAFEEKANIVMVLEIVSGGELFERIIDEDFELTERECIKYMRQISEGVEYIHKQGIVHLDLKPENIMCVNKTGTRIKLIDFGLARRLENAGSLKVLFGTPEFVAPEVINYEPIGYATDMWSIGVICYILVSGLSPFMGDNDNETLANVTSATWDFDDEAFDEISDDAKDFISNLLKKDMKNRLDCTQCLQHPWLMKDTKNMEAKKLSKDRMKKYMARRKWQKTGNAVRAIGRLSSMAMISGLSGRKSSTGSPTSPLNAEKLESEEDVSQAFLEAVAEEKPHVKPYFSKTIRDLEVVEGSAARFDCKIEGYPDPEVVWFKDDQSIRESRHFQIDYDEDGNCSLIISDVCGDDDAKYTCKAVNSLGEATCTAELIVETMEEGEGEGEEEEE
Experimental: as §2, §3, §4, §6

[10] = tested on: MAPK14; design: method as in Jafari et al., Nat. Protoc. 2014; settings: MAPK14, living HL-60 cells, ref Jafari et al., Nat. Protoc. 2014, cited from earlier work
[11] = MAPKAPK3, living cells, immunoblot
[12] = living HL-60 cells, 20 µM inhibitor, immunoblot
[13] = living HL-60 cells, 20 µM inhibitor, immunoblot, 20 µM
[14] = MAPKAPK2, living cells, immunoblot
[15] = GSK-3α, living cells, immunoblot
[16] = living HL-60 cells, 20 µM inhibitor, immunoblot, read-out: ΔTm to DMSO (GSK-3α)

Structure (SMILES)	Tm [1, 11] [°C]	Tm (MAPKAPK3) [1, 12] [°C]	Tm [3, 15] [°C]	Tm (GSK-3α) [3, 12] [°C]	ΔTm at 20 µM [3, 16] [°C]	MAPKAPK2 phosphorylation (band pattern, PDEMS) [4]	EC50 [5] [nM]	Hill slope (HN1L) [5]	Hill slope (MAPK8) [6]	thermal stabilization in melting curves (MAPKAPK3) [7]	thermal stabilization in melting curves (MAPKAPK2) [8]	thermal stabilization in melting curves (MYLK) [9]	Tagg values (given as averages ± s.d.), AlphaScreen [10]	Tagg values (given as averages ± s.d.), Western blot [10]	Top ([2]; MAPKAPK2, living cells) [%]	other results
Cn1c(NC[C@@H](N)Cc2ccccc2)nc(-c2ccncc2)c(-c2ccc3ccccc3c2)c1=O [AMG-548]	54.68	54.68	53.26	53.26	-0.71	inhibited apparent MAPKAPK2 phosphorylation	389	0.39	0.24	thermal stabilizations	thermal stabilizations	thermal stabilizations	59.2 ± 0.9 °C	60.6 ± 1.0 °C		ΔTm to DMSO [1, 11]: 6.62 °C; ΔTm to DMSO (MAPKAPK3) [1, 13]: 6.6 °C and 6.62 °C; Tm [2, 14]: 54.39 °C; ΔTm to DMSO [2, 14]: 5.18 °C; Tm (MAPKAPK2) [2, 12]: 54.39 °C; ΔTm to DMSO (MAPKAPK2) [2, 13]: 5.2 °C and 5.18 °C
Cc1cnc(Nc2ccc(F)cc2Cl)nc1-c1c[nH]c(C(=O)N[C@H](CO)c2cccc(Cl)c2)c1 [ERK 11e]			54.11	54.11		double band	110	0.20					no substantial response (same as DMSO)	no substantial response (same as DMSO)	36.1	ΔTm at 20 µM ([1]; HL-60, read-out: ΔTm to DMSO (MAPKAPK3)): 0.26 °C; ΔTm at 20 µM ([2]; HL-60, read-out: ΔTm to DMSO (MAPKAPK2)): -0.02 °C; ΔTm at 20 µM ([3]; HL-60, read-out: ΔTm to DMSO (GSK-3α)): 0.14 °C; Hill slope ([5]; TPP-CCR, living cells, HN1L): 0.20
C[S+]([O-])c1ccc(-c2nc(-c3ccncc3)c(-c3ccc(F)cc3)[nH]2)cc1 (centres unmarked) [SB203580]	51.56	51.56	54.03	54.03	0.05	inhibited apparent MAPKAPK2 phosphorylation			0.44	thermal stabilizations	thermal stabilizations	thermal stabilizations			87.0	ΔTm to DMSO [3, 15]: 0.0529 °C
